Test results reported in US20100267561A1, “HERBICIDAL PYRIDAZINONE DERIVATIVES” (priority 2007, published 2010).
Like-named read-outs stand apart in the source and are kept apart here.

Experiments:
Assay in all cases: Test B pre-/postemergence plant response
Assay type in all cases: in vivo
[1] = test system: common (oilseed) sunflower (Helianthus annuus); details: Preemergence; for Sunflower plant response rating: scale 0 to 100
Source text: (§1) Seeds of plant species selected from blackgrass (Alopecurus myosuroides), downy bromegrass (Bromus tectorum), green foxtail (Setaria viridis), Italian ryegrass (Lolium multiflorum), wheat (Triticum aestivum), wild oat (Avena fatua), catchweed bedstraw (Galium aparine), bermudagrass (Cynodon dactylon), surinam grass (Brachiaria decumbens), cocklebur (Xanthium strumarium), corn (Zea mays), large crabgrass (Digitaria sanguinalis), woolly cupgrass (Eriochloa villosa), giant foxtail (Setaria faberii), goosegrass (Eleusine indica), johnsongrass (Sorghum halepense), kochia (Kochia scoparia), lambsquarters (Chenopodium album), morningglory (Ipomoea coccinea), eastern black (E.B.) nightshade (Solanum ptycanthum), yellow nutsedge (Cyperus esculentus), pigweed (Amaranthus retroflexus), common ragweed (Ambrosia elation), Russian thistle (Salsola iberica), soybean (Glycine max), common (oilseed) sunflower (Helianthus annuus), and velvetleaf (Abutilon theophrasti) were planted and treated preemergence with test chemicals formulated in a non-phytotoxic solvent mixture which included a surfactant.
(§2) At the same time, plants selected from these crop and weed species and also winter barley (Hordeum vulgare), canarygrass (Phalaris minor), chickweed (Stellaria media) and windgrass (Apera spica-venti) were treated with postemergence applications of some of the test chemicals formulated in the same manner. Plants ranged in height from 2 to 18 cm (1- to 4-leaf stage) for postemergence treatments.
(§3) Plant species in the flooded paddy test consisted of rice (Oryza sativa), umbrella sedge (Cyperus difformis), ducksalad (Heteranthera limosa) and barnyardgrass (Echinochloa crus-galli) grown to the 2-leaf stage for testing. At time of treatment, test pots were flooded to 3 cm above the soil surface, treated by application of test compounds directly to the paddy water, and then maintained at that water depth for the duration of the test. Treated plants and controls were maintained in a greenhouse for 13 to 15 days, after which time all species were compared to controls and visually evaluated. Plant response ratings, summarized in Table B, are based on a scale of 0 to 100 where 0 is no effect and 100 is complete control. A dash (-) response means no test result.

[2] = test system: common ragweed (Ambrosia elation); details: for pest or weed control at 31 g/ha / pest or weed control at 62 g/ha: Ambrosia, read-out: Plant response rating, Ragweed; for pest or weed control at 31 g/ha: 31 g ai/ha; for pest or weed control at 62 g/ha: 62 g ai/ha, 100 complete control
Source text: as §1, §2, §3

[3] = test system: eastern black (E.B.) nightshade (Solanum ptycanthum); details: Preemergence; for Nightshade, E. B. plant response rating: scale 0 to 100
Source text: as §1, §2, §3

[4] = test system: giant foxtail (Setaria faberii); details: for pest or weed control at 31 g/ha: 31 g ai/ha; for pest or weed control at 62 g/ha: 62 g ai/ha, 100 complete control
Source text: as §1, §2, §3

[5] = test system: goosegrass (Eleusine indica); details: for pest or weed control at 31 g/ha / pest or weed control at 62 g/ha: Eleusine indica, read-out: Plant response rating, Goosegrass; for pest or weed control at 31 g/ha: 31 g ai/ha; for pest or weed control at 62 g/ha: 62 g ai/ha, 100 complete control
Source text: as §1, §2, §3

[6] = test system: green foxtail (Setaria viridis); details: for pest or weed control at 31 g/ha: 31 g ai/ha; for pest or weed control at 62 g/ha: 62 g ai/ha, 100 complete control
Source text: as §1, §2, §3

[7] = test system: johnsongrass (Sorghum halepense)
Source text: as §1, §2, §3

[8] = 8 g ai/ha, postemergence, 0-100 scale
[9] = 16 g ai/ha, postemergence, 0-100 scale
[10] = post-emergence, Postemergence, scale 0 to 100
[11] = post-emergence, Postemergence, scale 0 to 100, 0 no effect
[12] = pre-emergence, Preemergence, scale 0 to 100 (0 no effect, 100 complete control)
[13] = pre-emergence, Preemergence, 0 to 100 scale, 0 no effect
[14] = Preemergence, 8 g ai/ha, scale 0 to 100
[15] = Preemergence, 16 g ai/ha, scale 0 to 100

SMILES: Cc1nn(C)c(=O)c(-n2nc(-c3ccc(C(F)(F)F)cc3)cc2C)c1O [Compound 75, 5-hydroxy-2,6-dimethyl-4-[5-methyl-3-[4-(trifluoromethyl)phenyl]-1H-pyrazol-1-yl]-3(2H)-pyridazinone]
- pest or weed control at 31 g/ha ([1]; Helianthus annuus, pre-emergence, 31 g ai/ha, scale 0 to 100 (0 no effect, 100 complete control), read-out: Plant response rating, Sunflower): 0%
- pest or weed control at 62 g/ha ([1]; Helianthus annuus, pre-emergence, 62 g ai/ha, 0 to 100 scale, 0 no effect, 100 complete control, read-out: Plant response rating, Sunflower): 0%
- Sunflower plant response rating ([1]; 8 g ai/ha): 0
- Sunflower plant response rating ([1]; 16 g ai/ha): 0
- Ragweed plant response rating [2, 8]: 0
- Ragweed plant response rating [2, 9]: 0
- pest or weed control at 31 g/ha [2, 10]: 0%
- pest or weed control at 62 g/ha [2, 11]: 0%
- pest or weed control at 31 g/ha [2, 12]: 0%
- pest or weed control at 62 g/ha [2, 13]: 0%
- Ragweed plant response rating [2, 14]: 0
- Ragweed plant response rating [2, 15]: 0
- Nightshade, E. B. plant response rating ([3]; 8 g ai/ha): 0
- Nightshade, E. B. plant response rating ([3]; 16 g ai/ha): 0
- pest or weed control at 31 g/ha ([3]; Solanum, pre-emergence, 31 g ai/ha, scale 0 to 100 (0 no effect, 100 complete control), read-out: Plant response rating, Nightshade, E. B.): 0%
- pest or weed control at 62 g/ha ([3]; Solanum, pre-emergence, 62 g ai/ha, 0 to 100 scale, 0 no effect, 100 complete control, read-out: Plant response rating, Nightshade, E. B.): 0%
- Foxtail, Giant plant response rating [4, 8]: 50
- Foxtail, Giant plant response rating [4, 14]: 0
- Foxtail, Giant plant response rating [4, 15]: 0
- pest or weed control at 16 g/ha ([4]; Setaria faberi, post-emergence, Postemergence, 16 g ai/ha, scale 0 to 100, read-out: Plant response rating, Foxtail, Giant): 70%
- pest or weed control at 31 g/ha ([4]; Setaria faberi, post-emergence, Postemergence, scale 0 to 100, read-out: Plant response rating, Foxtail, Giant): 80%
- pest or weed control at 62 g/ha ([4]; Setaria faberi, post-emergence, Postemergence, scale 0 to 100, 0 no effect, read-out: Plant response rating, Foxtail, Giant): 85%
- pest or weed control at 31 g/ha ([4]; Setaria faberi, pre-emergence, Preemergence, scale 0 to 100 (0 no effect, 100 complete control), read-out: Plant response rating, Foxtail, Giant): 50%
- pest or weed control at 62 g/ha ([4]; Setaria faberi, pre-emergence, Preemergence, 0 to 100 scale, 0 no effect, read-out: Plant response rating, Foxtail, Giant): 95%
- Goosegrass plant response rating [5, 8]: 30
- Goosegrass plant response rating [5, 9]: 50
- pest or weed control at 31 g/ha [5, 10]: 60%
- pest or weed control at 62 g/ha [5, 11]: 75%
- pest or weed control at 31 g/ha [5, 12]: 90%
- pest or weed control at 62 g/ha [5, 13]: 98%
- Goosegrass plant response rating [5, 14]: 50
- Goosegrass plant response rating [5, 15]: 65
- Foxtail, Green plant response rating [6, 8]: 0
- Foxtail, Green plant response rating [6, 14]: 0
- Foxtail, Green plant response rating [6, 15]: 30
- pest or weed control at 16 g/ha ([6]; Setaria viridis, post-emergence, Postemergence, 16 g ai/ha, scale 0 to 100, read-out: Plant response rating, Foxtail, Green): 40%
- pest or weed control at 31 g/ha ([6]; Setaria viridis, post-emergence, Postemergence, scale 0 to 100, read-out: Plant response rating, Foxtail, Green): 80%
- pest or weed control at 62 g/ha ([6]; Setaria viridis, post-emergence, Postemergence, scale 0 to 100, 0 no effect, read-out: Plant response rating, Foxtail, Green): 95%
- pest or weed control at 31 g/ha ([6]; Setaria viridis, pre-emergence, Preemergence, scale 0 to 100 (0 no effect, 100 complete control), read-out: Plant response rating, Foxtail, Green): 50%
- pest or weed control at 62 g/ha ([6]; Setaria viridis, pre-emergence, Preemergence, 0 to 100 scale, 0 no effect, read-out: Plant response rating, Foxtail, Green): 80%
- Johnsongrass plant response rating [7, 8]: 75
- Johnsongrass plant response rating [7, 9]: 80
- Johnsongrass plant response rating [7, 14]: 0
- Johnsongrass plant response rating [7, 15]: 75
- pest or weed control at 31 g/ha ([7]; Sorghum halepense, post-emergence, Postemergence, 31 g ai/ha, scale 0 to 100, read-out: Plant response rating, Johnsongrass): 98%
- pest or weed control at 62 g/ha ([7]; Sorghum halepense, post-emergence, Postemergence, 62 g ai/ha, scale 0 to 100, 0 no effect, 100 complete control, read-out: Plant response rating, Johnsongrass): 100%
